Experimental data published in US11844846B2, “Styrylbenzothiazole derivatives and uses in imaging methods” (Emory University, priority 2018, dated 2023).
Several values for one entry are separate records, joined by “and”; a condition that tells them apart may be missing. Equal values may be shown once. Entries after “also recorded” stand apart in the source; their conditions may differ. Read-outs that look alike come from different tables or passages of the source. Each block holds one molecule with its values, some of them ahead of it.

Key:
[1] = molecular target: T1, Lewy bodies in α-Syn A53T virus injected WT mice brain slices (Homo sapiens, UniProt P37840, A53T); assay: staining of mouse brain slices with Lewy bodies; type: binding
T1 construct: from tissue; host or cells: brain (substantia nigra) of wild-type mice injected with α-Syn A53T virus
Method: To further explore whether the positive compounds selectively bind to the Lewy bodies, α-Syn A53T patient-derived mutant virus injected WT mice brain slices were employed. These mice display extensive Lewy bodies in the SN.
To further explore whether the positive compounds selectively bind to the Lewy bodies, a α-Syn A53T patient-derived mutant virus was injected into WT mice brain slices. These mice display extensive Lewy bodies in the Substantial nigra (SN). Moreover, P301S mice expressed neurofibrillary tangles (NFT). The Lewy bodies were labeled with p-α-Syn S129 antibody and the positive aggregates were also labeled with the fluorescent signals from the small molecules. […] However, it was worth noting that almost none of the tested compounds were reactive with NFT.

[2] = molecular target: T2, LBs and LNs in DLB and MSA patient brains (Homo sapiens, UniProt P37840); assay: ex vivo screening on DLB and MSA patient brain sections; type: binding
T2 construct: from tissue; host or cells: brain sections of DLB and MSA patients
Text: (§1) Ex vivo screening was extended into human DLB, MSA and AD patient samples. […] Since there are detectable α-Syn aggregates in AD patient brains, these compounds colocalized with p-S129 positive α-Syn inclusions.
(§2) The ex vivo screening was extended into human DLB, MSA and AD patient samples. Neurodegenerative disease of DLB (dementia with Lewy Bodies) and MSA belongs to synucleinopathies with well-defined Lewy bodies.

[3] = system: α-Syn aggregated neurons; assay: neuronal α-Syn aggregation model, fluorescent microscopy; type: cell-based; conditions: primary cultured neurons, AAV-α-Syn plus α-Syn PFFs
Text: (§3) A series of derivatives were synthesized by including an amino group and a methyl group on benzothiazole to increase the brain permeability and fluorescent signals. The derivatives were subsequently subjected to α-Syn PFFs binding assay and counter-screening with Tau and Aβ PFFs. […] These compounds were screened on the neuronal α-Syn, Tau and Aβ aggregation model for the binding selectivity. Primary cultured neurons were infected with AAV-α-Syn, AAV-Tau FL for 7 days, then treated with α-Syn, Tau or Aβ PFFs. In a few days, the positive compounds were added in the primary neurons with indicated aggregates and analyzed under fluorescent microscopy.
(§4) Primary cultured neurons were infected with AAV-α-Syn, AAV-Tau FL or AAV-APP fragment virus for 7 days, and then treated with α-Syn, Tau or Aβ PFFs by following the described protocols (Volpicelli-Daley et al., 2014). In a few days, the positive compounds were added in the primary neurons with indicated aggregation.

[4] = plasma-brain ratio study / in vivo PK of EU compounds; design: species or system mouse
Method: To address whether the selected compounds penetrate the brain, a plasma-brain ratio study was performed with EU04-03A, EU05-02A and EU05-02B.
To test whether these compounds are brain permeable in vivo, in vivo PK profiling was conducted to determine brain exposure.

[5] = molecular target: α-Syn PFFs (Homo sapiens, UniProt P37840); assay: fluorescence spectroscopy titration with α-Syn PFFs; type: binding; conditions: 0.08 μM fibrils, 5 μM small molecule, result in words
Method: (§5) A fluorescent titration assay was conducted. The fluorescent emission intensities were determined with 0.08 μM of various fibrils in the presence of 5 μM of the small molecules.
(§6) To further investigate the selected compounds binding activities with α-Syn PFFs, fluorescence spectroscopy titrations were conducted to quantitatively measure compounds emission intensity when interacting with different concentrations of α-Syn PFFs. The UV spectrum of each compound was determined and selected for the optimal wavelength to conduct the fluorescence spectroscopic studies.

[6] = system: senile plaques or NFT in AD; assay: ex vivo screening on AD patient brain sections; type: binding, human
Text: as §1, §2

[7] = system: neurons with Aβ or Tau aggregates; assay: neuronal Aβ and Tau aggregation models, fluorescent microscopy; type: cell-based; conditions: primary cultured neurons
Text: as §3, §4

[8] = molecular target: Tau PFFs (Homo sapiens, UniProt P10636); assay: fluorescence spectroscopy titration with Tau PFFs; type: binding; conditions: 0.08 μM fibrils, 5 μM small molecule; result in words
Chain of Tau PFFs (P10636 whole entry): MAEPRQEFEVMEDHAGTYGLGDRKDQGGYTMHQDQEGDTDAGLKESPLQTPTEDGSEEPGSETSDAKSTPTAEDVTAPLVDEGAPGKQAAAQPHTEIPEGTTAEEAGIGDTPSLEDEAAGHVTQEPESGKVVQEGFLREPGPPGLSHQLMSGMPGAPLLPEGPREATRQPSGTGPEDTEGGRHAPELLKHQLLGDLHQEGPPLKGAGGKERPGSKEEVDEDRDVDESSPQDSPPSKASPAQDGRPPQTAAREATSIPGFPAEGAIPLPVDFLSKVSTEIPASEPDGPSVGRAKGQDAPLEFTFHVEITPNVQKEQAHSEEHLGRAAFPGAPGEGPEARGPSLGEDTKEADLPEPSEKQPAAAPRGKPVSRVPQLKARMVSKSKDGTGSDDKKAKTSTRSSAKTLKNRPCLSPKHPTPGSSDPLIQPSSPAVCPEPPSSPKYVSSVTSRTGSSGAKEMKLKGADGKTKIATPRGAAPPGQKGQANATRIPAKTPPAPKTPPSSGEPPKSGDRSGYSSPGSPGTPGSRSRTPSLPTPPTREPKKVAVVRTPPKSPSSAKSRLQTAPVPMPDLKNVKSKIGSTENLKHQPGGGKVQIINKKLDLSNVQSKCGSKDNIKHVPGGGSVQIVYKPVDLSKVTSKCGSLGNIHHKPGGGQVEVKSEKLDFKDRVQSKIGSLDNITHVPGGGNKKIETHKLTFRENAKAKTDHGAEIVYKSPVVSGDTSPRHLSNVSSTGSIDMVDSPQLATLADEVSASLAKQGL
Method: as §5, §6

staining of Lewy bodies (p-α-Syn S129 positive) [1]: signals were very weak
SMILES: COc1cc(/C=C/c2nc3ccc(N(C)C)cc3s2)ccc1O [EU-004-02A, (E)-4-(2-(6-(dimethylamino)benzo[d]thiazol-2-yl)vinyl)-2-methoxyphenol]

staining of LBs and LNs [2]: robust signals with LBs and LNs | staining of LBs and LNs ([2]; listed as EU04-03A): co-stained with Lewy bodies
SMILES: CCNc1ccc2nc(/C=C/c3ccc(O)c(OC)c3)sc2c1 [EU-004-03A, (E)-4-(2-(6-(ethylamino)benzo[d]thiazol-2-yl)vinyl)-2-methoxyphenol]
fluorescent signal in α-Syn aggregated neurons [3]: positive for selective binding | fluorescent signal in α-Syn aggregated neurons ([3]; listed as EU04-03A): positive signals in α-Syn aggregated neurons | brain permeability ([4]; mice, i.v., result in words, listed as EU04-03A): swiftly penetrated the brain and exhibited much higher brain permeability compared to EU05-02A; also recorded: higher brain permeability than EU05-02B | binding to α-Syn PFFs by fluorescent emission intensity [5]: but not EU-05-02A and EU-04-03A showed specific association with the PFFs | staining of senile plaques or NFT (Aβ, AT8 positive aggregates) [6]: barely co-stained with anti-AD or AT8 positive aggregate signals | staining of senile plaques or NFT (Aβ, AT8 positive aggregates) ([6]; listed as EU04-03A): barely recognized AT8 positive Tau NFT or Aβ aggregates in AD brains | fluorescent signal in neurons with Aβ or Tau aggregates [7]: negligible effects in neurons with Aβ or Tau aggregates

SMILES: COc1cc(/C=C/c2nc3cc(C)c(N(C)C)cc3s2)ccc1O [EU-005-02A, (E)-4-(2-(6-(dimethylamino)-5-methylbenzo[d]thiazol-2-yl)vinyl)-2-methoxyphenol]
staining of LBs and LNs [2]: robust signals with LBs and LNs | staining of LBs and LNs ([2]; listed as EU05-02A): co-stained with Lewy bodies | staining of Lewy bodies (p-α-Syn S129 positive) [1]: signals were very weak | binding to Tau PFFs by fluorescent emission intensity [8]: strongly bound to both α-Syn and Tau PFFs | fluorescent signal in α-Syn aggregated neurons [3]: positive for selective binding | fluorescent signal in α-Syn aggregated neurons ([3]; listed as EU05-02A): positive signals in α-Syn aggregated neurons | B/P ([4]; Male ICR Mouse, 5 mg/kg IV, 0.50 h, single animals, 5 mg/kg): 0.65 and 1.62 and 0.69 | B/P ([4]; Male ICR Mouse, 5 mg/kg IV, 1.00 h, single animals, 5 mg/kg): 0.46 and 0.26 | B/P ([4]; Male ICR Mouse, 5 mg/kg IV, 2.00 h, single animals, 5 mg/kg): 0.49 and 0.34 | Kp at 0.5 h ([4]; male, ICR, mouse, brain, iv, 5 mg/kg, Male ICR Mouse, 5 mg/kg IV, 0.50 h, read-out: B/P Mean): 0.99 | Kp at 1 h ([4]; male, ICR, mouse, brain, iv, 5 mg/kg, Male ICR Mouse, 5 mg/kg IV, 1.00 h, single animals, read-out: B/P): 0.52 | Kp at 1 h ([4]; male, ICR, mouse, brain, iv, 5 mg/kg, Male ICR Mouse, 5 mg/kg IV, 1.00 h, read-out: B/P Mean): 0.41 | Kp at 2 h ([4]; male, ICR, mouse, brain, iv, 5 mg/kg, Male ICR Mouse, 5 mg/kg IV, 2.00 h, single animals, read-out: B/P): 0.42 | Kp at 2 h ([4]; male, ICR, mouse, brain, iv, 5 mg/kg, Male ICR Mouse, 5 mg/kg IV, 2.00 h, read-out: B/P Mean): 0.41 | in vivo half-life / decay ([4]; mice, i.v. 5 mg/kg, result in words): decayed 2 h after i.v. administration | binding to α-Syn PFFs by fluorescent emission intensity [5]: strongly bound to both α-Syn and Tau PFFs | binding to α-Syn PFFs by fluorescent emission intensity ([5]; listed as EU-05-02A): but not EU-05-02A and EU-04-03A showed specific association with the PFFs | staining of senile plaques or NFT (Aβ, AT8 positive aggregates) [6]: barely co-stained with anti-AD or AT8 positive aggregate signals | staining of senile plaques or NFT (Aβ, AT8 positive aggregates) ([6]; listed as EU05-02A): barely recognized AT8 positive Tau NFT or Aβ aggregates in AD brains | fluorescent signal in neurons with Aβ or Tau aggregates [7]: negligible effects in neurons with Aβ or Tau aggregates
